Our source for the Drug metabolism and Compound recovery values is ChEMBL document CHEMBL3526033, “Identification of human liver cytochrome P450 enzymes involved in the metabolism of SCH 530348 (Vorapaxar), a potent oral thrombin protease-activated receptor 1 antagonist” (Drug Metab Dispos, 2011).

In data set [1] the target is T1, Cytochrome P450 3A5 (Homo sapiens, UniProt P20815). Kind of data set: Drug level assessed as human recombinant CYP3A5-mediated drug metabolism treated with 25 uM [14C]vorapaxar after 120 mins by LC-MS/MS analysis in presence of NADPH. The data set is classed as ADME. The note with it: recombinant enzyme, 2 h.
T1 sequence (P20815 whole entry): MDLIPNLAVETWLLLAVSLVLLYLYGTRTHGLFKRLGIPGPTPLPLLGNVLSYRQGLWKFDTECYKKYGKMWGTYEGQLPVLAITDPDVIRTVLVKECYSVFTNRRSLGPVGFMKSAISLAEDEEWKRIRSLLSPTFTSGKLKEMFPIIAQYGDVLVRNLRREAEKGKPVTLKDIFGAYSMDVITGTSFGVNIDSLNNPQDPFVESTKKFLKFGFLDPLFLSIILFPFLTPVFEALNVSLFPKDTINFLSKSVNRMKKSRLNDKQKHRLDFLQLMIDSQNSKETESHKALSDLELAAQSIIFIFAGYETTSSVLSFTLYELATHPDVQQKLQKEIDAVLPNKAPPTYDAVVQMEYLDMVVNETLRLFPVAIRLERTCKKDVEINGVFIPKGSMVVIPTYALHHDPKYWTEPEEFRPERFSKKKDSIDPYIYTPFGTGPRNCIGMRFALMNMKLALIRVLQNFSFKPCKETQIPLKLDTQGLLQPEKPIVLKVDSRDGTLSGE
For data set [2], the target named is T2, Cytochrome P450 1A2 (Homo sapiens, UniProt P05177).
T2 sequence (P05177 whole entry): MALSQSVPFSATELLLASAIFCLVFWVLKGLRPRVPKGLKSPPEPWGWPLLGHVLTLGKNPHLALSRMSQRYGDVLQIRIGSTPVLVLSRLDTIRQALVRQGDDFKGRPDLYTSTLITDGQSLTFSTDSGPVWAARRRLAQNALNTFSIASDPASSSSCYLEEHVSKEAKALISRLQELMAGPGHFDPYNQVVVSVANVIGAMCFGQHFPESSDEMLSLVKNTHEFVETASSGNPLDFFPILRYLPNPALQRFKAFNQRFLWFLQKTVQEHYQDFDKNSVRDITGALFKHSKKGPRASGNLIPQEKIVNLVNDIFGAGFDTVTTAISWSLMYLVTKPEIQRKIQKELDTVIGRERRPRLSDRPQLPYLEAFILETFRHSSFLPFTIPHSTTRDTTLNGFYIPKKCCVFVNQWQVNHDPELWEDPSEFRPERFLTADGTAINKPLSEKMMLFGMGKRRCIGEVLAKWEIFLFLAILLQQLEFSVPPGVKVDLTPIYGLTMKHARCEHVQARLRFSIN
Kind of data set: Drug level assessed as human recombinant CYP1A2-mediated drug metabolism treated with 25 uM [14C]vorapaxar after 120 mins by LC-MS/MS analysis in presence of NADPH. The data set is classed as ADME. As to conditions: recombinant enzyme, 2 h.

Another data set deals with T3, Cytochrome P450 4F3 (Homo sapiens, UniProt Q08477).
T3 sequence (Q08477 whole entry): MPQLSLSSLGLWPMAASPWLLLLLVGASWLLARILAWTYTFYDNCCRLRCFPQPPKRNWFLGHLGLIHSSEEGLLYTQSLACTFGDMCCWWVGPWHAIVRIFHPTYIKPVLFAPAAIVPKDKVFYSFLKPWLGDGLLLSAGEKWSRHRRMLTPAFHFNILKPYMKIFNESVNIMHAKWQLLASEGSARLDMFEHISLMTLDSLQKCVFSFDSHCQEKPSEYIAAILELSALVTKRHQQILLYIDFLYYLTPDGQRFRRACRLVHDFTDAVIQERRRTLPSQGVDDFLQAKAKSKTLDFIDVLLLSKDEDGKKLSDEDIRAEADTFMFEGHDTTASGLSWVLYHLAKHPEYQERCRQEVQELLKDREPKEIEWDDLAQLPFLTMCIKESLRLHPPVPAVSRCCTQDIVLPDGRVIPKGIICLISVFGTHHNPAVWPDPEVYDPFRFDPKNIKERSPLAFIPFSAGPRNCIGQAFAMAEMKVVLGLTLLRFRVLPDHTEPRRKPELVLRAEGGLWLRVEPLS
Description: Drug level assessed as human recombinant CYP4F3A-mediated drug metabolism treated with 25 uM [14C]vorapaxar after 120 mins by LC-MS/MS analysis in presence of NADPH. The data set is classed as ADME. As to conditions: recombinant enzyme, 2 h.

Data set [3] concerns the target T4, Cytochrome P450 1A1 (Homo sapiens, UniProt P04798).
T4 sequence (P04798 whole entry): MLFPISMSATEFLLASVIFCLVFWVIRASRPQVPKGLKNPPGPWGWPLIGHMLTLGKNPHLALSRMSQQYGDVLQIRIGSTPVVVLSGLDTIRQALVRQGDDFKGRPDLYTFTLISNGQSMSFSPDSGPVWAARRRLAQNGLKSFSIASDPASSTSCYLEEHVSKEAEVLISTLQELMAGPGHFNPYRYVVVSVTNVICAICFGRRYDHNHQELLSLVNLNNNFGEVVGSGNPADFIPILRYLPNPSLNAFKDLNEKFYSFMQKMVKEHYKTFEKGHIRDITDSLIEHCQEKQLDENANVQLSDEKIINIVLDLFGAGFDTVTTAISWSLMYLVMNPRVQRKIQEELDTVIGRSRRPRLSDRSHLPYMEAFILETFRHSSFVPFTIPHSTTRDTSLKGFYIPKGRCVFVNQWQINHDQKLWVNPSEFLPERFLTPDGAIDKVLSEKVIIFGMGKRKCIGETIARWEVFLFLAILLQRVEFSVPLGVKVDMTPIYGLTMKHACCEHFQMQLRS
Description: Drug level assessed as human recombinant CYP1A1-mediated drug metabolism treated with 25 uM [14C]vorapaxar after 120 mins by LC-MS/MS analysis in presence of NADPH. Format: ADME. The note with it: recombinant enzyme, 2 h.

The target of data set [4] is T5, Cytochrome P450 2C19 (Homo sapiens, UniProt P33261). Kind of data set: Drug level assessed as human recombinant CYP2C19-mediated drug metabolism treated with 25 uM [14C]vorapaxar after 120 mins by LC-MS/MS analysis in presence of NADPH. The note with it: recombinant enzyme, 2 h. The data set is classed as ADME.
T5 sequence (P33261 whole entry): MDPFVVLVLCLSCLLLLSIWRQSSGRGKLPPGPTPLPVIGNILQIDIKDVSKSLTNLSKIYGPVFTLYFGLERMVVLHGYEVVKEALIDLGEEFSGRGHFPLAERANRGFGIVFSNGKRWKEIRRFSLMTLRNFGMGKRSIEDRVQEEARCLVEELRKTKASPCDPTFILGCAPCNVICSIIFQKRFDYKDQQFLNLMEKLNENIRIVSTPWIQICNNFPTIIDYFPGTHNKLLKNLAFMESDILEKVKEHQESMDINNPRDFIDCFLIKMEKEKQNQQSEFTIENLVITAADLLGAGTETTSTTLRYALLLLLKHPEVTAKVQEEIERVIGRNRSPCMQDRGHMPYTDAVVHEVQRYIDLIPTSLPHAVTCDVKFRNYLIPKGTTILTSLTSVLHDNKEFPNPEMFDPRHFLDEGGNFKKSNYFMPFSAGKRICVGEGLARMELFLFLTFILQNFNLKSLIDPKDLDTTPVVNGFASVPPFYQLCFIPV
In data set [5] the target is T6, Cytochrome P450 3A4 (Homo sapiens, UniProt P08684). Description: Drug level in human liver microsomes assessed as CYP3A4-mediated drug metabolism at 25 uM after 120 mins by LC-MS/MS analysis. As to conditions: 2 h. Format: ADME.
T6 sequence (P08684 whole entry): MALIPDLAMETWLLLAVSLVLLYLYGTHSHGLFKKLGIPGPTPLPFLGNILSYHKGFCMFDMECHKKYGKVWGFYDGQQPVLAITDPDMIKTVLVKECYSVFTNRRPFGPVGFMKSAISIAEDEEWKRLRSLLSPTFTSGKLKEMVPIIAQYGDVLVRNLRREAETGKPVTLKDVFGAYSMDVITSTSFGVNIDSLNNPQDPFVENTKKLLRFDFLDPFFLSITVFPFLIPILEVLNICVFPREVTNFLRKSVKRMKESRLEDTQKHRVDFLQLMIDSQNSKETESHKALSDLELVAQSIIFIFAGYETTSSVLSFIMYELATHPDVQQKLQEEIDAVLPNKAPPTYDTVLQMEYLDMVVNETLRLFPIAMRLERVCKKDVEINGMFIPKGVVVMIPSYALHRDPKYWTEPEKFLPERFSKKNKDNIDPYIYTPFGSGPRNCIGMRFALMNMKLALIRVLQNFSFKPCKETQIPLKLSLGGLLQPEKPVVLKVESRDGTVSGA
The next data set addresses T7, Cytochrome P450 2J2 (Homo sapiens, UniProt P51589).
T7 sequence (P51589 whole entry): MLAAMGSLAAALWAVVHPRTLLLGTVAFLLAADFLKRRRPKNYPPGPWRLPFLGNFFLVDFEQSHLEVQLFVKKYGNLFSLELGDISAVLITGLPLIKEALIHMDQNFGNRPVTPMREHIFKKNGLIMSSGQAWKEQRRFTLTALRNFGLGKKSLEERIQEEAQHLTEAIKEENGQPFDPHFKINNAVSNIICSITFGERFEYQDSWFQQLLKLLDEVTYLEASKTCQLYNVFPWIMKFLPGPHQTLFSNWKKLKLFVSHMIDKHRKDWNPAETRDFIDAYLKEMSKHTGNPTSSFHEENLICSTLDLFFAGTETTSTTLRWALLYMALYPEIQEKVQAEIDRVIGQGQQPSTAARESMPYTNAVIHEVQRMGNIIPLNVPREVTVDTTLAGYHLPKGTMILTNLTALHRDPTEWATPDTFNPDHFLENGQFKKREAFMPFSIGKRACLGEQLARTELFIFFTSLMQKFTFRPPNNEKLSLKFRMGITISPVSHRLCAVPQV
Description: Drug level in human liver microsomes assessed as CYP2J2-mediated drug metabolism at 25 uM after 120 mins by LC-MS/MS analysis. The data set is classed as ADME. The note with it: 2 h.

Data set [6] deals with Liver microsome. Description: Drug level in human liver microsomes treated with 10 to 25 uM vorapaxar after 120 mins by LC-MS/MS analysis in presence of sulfaphenazole. The data set is classed as ADME. The note with it: 2 h. On the technique in general: Liver microsomes are vesicles of endoplasmic reticulum, rich in cytochrome P450 enzymes.
Data set [7] deals with Liver microsome. Kind of data set: Drug level in human liver microsomes treated with 10 to 25 uM vorapaxar after 120 mins by LC-MS/MS analysis in presence of quinidine. The note with it: 2 h. The data set is classed as ADME.
Data set [8] concerns Liver microsome. Kind of data set: Drug level in human liver microsomes treated with 10 to 25 uM vorapaxar after 120 mins by LC-MS/MS analysis in presence of omeprazole. The data set is classed as ADME. The note with it: 2 h.
For data set [9], the system named is Liver microsome. Kind of data set: Drug level in human liver microsomes treated with 10 to 25 uM vorapaxar after 120 mins by LC-MS/MS analysis in presence of alpha-napthoflavone. The data set is classed as ADME. The note with it: 2 h.
For data set [10], the system named is Liver microsome. Description: Drug level in human liver microsomes treated with 10 to 25 uM vorapaxar after 120 mins by LC-MS/MS analysis in presence of CYP3A4-specific inhibitory antibody. The data set is classed as ADME. The note with it: 2 h.
Data set [11] has as its system Liver microsome. Description: Drug metabolism in human liver microsomes treated with 10 uM [14C]vorapaxar after 120 mins by LC-MS/MS analysis. The note with it: 2 h. The data set is classed as ADME.
A short description of data set [12]: Drug metabolism in human liver S9 fraction treated with 10 uM [14C]vorapaxar after 120 mins by LC-MS/MS analysis. Format: ADME, subcellular. The note with it: s9, 2 h.
Data set [13] has as its target T4, Cytochrome P450 1A1. Description: Activity of human recombinant CYP1A1 assessed as enzyme-mediated drug metabolism treated with 10 uM [14C]vorapaxar after 120 mins by LC-MS/MS analysis in presence of NADPH. The data set is classed as ADME. The note with it: 2 h.
In data set [14] the target is T2, Cytochrome P450 1A2. Description: Activity of human recombinant CYP1A2 assessed as enzyme-mediated drug metabolism treated with 10 uM [14C]vorapaxar after 120 mins by LC-MS/MS analysis in presence of NADPH. As to conditions: 2 h. Format: ADME.
The target of a further data set is Cytochrome P450 2C9 (Homo sapiens, UniProt P11712). Kind of data set: Activity of human recombinant CYP2C9 assessed as enzyme-mediated drug metabolism treated with 10 uM [14C]vorapaxar after 120 mins by LC-MS/MS analysis in presence of NADPH. The data set is classed as ADME. The note with it: 2 h.
Cytochrome P450 2C9, sequence (P11712 whole entry): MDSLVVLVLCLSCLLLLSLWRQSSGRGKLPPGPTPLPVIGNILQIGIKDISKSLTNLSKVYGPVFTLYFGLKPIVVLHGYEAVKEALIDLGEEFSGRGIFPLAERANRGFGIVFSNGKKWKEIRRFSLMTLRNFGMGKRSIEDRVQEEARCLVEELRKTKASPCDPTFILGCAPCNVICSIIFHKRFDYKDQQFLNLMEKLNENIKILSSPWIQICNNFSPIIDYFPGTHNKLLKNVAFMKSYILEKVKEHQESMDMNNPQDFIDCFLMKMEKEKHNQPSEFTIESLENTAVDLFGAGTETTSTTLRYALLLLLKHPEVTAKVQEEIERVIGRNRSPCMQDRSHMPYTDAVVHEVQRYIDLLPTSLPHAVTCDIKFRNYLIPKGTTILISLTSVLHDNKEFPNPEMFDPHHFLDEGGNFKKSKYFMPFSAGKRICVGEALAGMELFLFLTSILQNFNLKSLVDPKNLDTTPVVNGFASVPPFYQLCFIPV
Data set [15] concerns the target T5, Cytochrome P450 2C19. Description: Activity of human recombinant CYP2C19 assessed as enzyme-mediated drug metabolism treated with 10 uM [14C]vorapaxar after 120 mins by LC-MS/MS analysis in presence of NADPH. The data set is classed as ADME. As to conditions: 2 h.
Data set [16] concerns the target T6, Cytochrome P450 3A4. Kind of data set: Activity of human recombinant CYP3A4 assessed as enzyme-mediated drug metabolism treated with 10 uM [14C]vorapaxar after 120 mins by LC-MS/MS analysis in presence of NADPH. Format: ADME. As to conditions: 2 h.
Data set [17] deals with T1, Cytochrome P450 3A5. Kind of data set: Activity of human recombinant CYP3A5 assessed as enzyme-mediated drug metabolism treated with 10 uM [14C]vorapaxar after 120 mins by LC-MS/MS analysis in presence of NADPH. The data set is classed as ADME. As to conditions: 2 h.

Structures are written as SMILES.

As for `C[C@H]1OC(=O)[C@@H]2C[C@@H]3C[C@H](N)CC[C@H]3[C@H](/C=C/c3ccc(-c4cccc(F)c4)cn3)[C@H]12`, the Drug metabolism result on Cytochrome P450 3A5 [1], at Cytochrome P450 1A2 [2], at Cytochrome P450 4F3, at Cytochrome P450 1A1 [3], at Cytochrome P450 2C19 [4] and at Cytochrome P450 3A4 [5] was “metabolite_detected” throughout. Besides, the Drug metabolism result at Cytochrome P450 2J2, in the data set with Liver microsome [6], in the data set with Liver microsome [7], in the data set with Liver microsome [8], with Liver microsome [9] and in the data set on Liver microsome [10] was “metabolite_detected” throughout. Besides, the Compound recovery with Liver microsome [11] was 5.12%; in [12] it was 3.42%; on Cytochrome P450 1A1 [13], 1.96%; at Cytochrome P450 1A2 [14], 0.23%; on Cytochrome P450 2C9 it was “below level of quantification”; on Cytochrome P450 2C19 [15], 5.91%. Further, the Compound recovery is reported as 22.1% on Cytochrome P450 3A4 [16] and 0.15% on Cytochrome P450 3A5 [17].
